Here are results for 19 compounds from publication PMC5682218 (European journal of medicinal chemistry, 2017).

For orientation: IC50 means the concentration needed to halve the response being measured. Broadly, the CC50 is the concentration that lowers cell viability or growth by half. As usually defined, the EC50 is the concentration that produces a half-maximal response.

One series deals with HIV RT polymerase (pol) (Human immunodeficiency virus type 1 group M subtype B, UniProt P03366). The experiment in a line: RT polymerase assay. The series is classed as biochemical, HIV-1.
The next series deals with P4R5 cells. The experiment in a line: Cytotoxicity in cell-based MAGI assay. The note with it: human.
The target of the next series is HIV integrase (Human immunodeficiency virus type 1 group M subtype B, UniProt P03366). Description: HIV IN assay. The class given is biochemical.
In series [1] the target is HIV RT-associated RNase H (Human immunodeficiency virus type 1 group M subtype B, UniProt P03366). Description: RNH assay: HIV RT-associated RNase H inhibition, HTS-1 RNA/DNA substrate. The class given is biochemical, HIV-1.
A further series concerns HIV-1. Description: MAGI antiviral assay in P4R5 indicator cells. The class given is cell-based. The note with it: Human immunodeficiency virus 1, read-out: MAGI Antiviral EC50.
A short description of series [2]: Cytotoxicity in cell-based MAGI assay. The note with it: human, P4R5 indicator cells (MAGI assay).
Setting [3] is: read-out: RT IC50 Pol, concentration inhibiting the target enzyme by 50%.
The mark [4] stands for this setting: concentration inhibiting the target enzyme by 50%.

Structures can show the parent of a compound that is named as a salt. Where two headings read alike, the source gives them in different places.

For “3-Hydroxy-1,5,6,7-tetrahydro-2H-cyclopenta[4, 5]thieno[2,3-d]pyrimidine-2,4(3H)-dione [Compound 11i]”, the 50% inhibitory concentration (IC50) on HIV RT polymerase (pol) (setting [3]) was above 10 µM. Further, the 50% cytotoxic concentration (CC50) in the series with P4R5 cells was above 100 µM.
As to “3-Hydroxy-5,6,7,8-tetrahydrobenzo[4, 5]thieno[2,3-d]pyrimidine-2,4(1H,3H)-dione [Compound 11j]”, at HIV RT polymerase (pol) (setting [3]), the IC50 is above 10 µM. For the same compound, in the series on P4R5 cells, the half-maximal cytotoxic concentration (CC50) was above 100 µM.
Take `O=c1[nH]c2cc(-c3ccccc3)ccc2c(=O)n1O` [Compound 9a, 3-Hydroxy-7-phenylquinazoline-2,4(1H,3H)-dione]: the half-maximal inhibitory concentration (IC50) at HIV RT polymerase (pol) was above 10 µM. In addition, the “fold decrease in INST inhibition” value on HIV integrase (vs. compound 14) is 5.5 fold. The “fold increase in RNase H inhibition” value in series [1] (vs. compound 14) is 6.5 fold.
Take `O=c1[nH]c2cc(-c3ccc(Cl)cc3)ccc2c(=O)n1O` [Compound 9b, 7-(4-Chlorophenyl)-3-hydroxyquinazoline-2,4(1H,3H)-dione]: the IC50 at HIV RT polymerase (pol) was above 10 µM.
With `O=c1[nH]c2cc(-c3ccccc3)sc2c(=O)n1O` [Compound 10a, 3-Hydroxy-6-phenylthieno [3,2-d]pyrimidine-2,4(1H,3H)-dione], the IC50 was above 10 µM on HIV RT polymerase (pol) and 100 ± 60 nM in series [1]. Also, at HIV RT polymerase (pol) (setting [4]), the “RT IC50 Pol” value is on record as “no RT pol inhibition”.
`O=c1[nH]c2cc(-c3ccc(F)cc3)sc2c(=O)n1O` [Compound 10b, 6-(4-Fluorophenyl)-3-hydroxythieno[3,2-d]pyrimidine-2,4(1H,3H)-dione] gave an IC50 against HIV RT polymerase (pol) above 10 µM.
`O=c1[nH]c2cc(-c3ccc(Cl)cc3)sc2c(=O)n1O` [Compound 10c, 6-(4-Chlorophenyl)-3-hydroxythieno[3,2-d]pyrimidine-2,4(1H,3H)-dione] showed a concentration for half-maximal inhibition (IC50) against HIV RT polymerase (pol) above 10 µM.
In turn, `O=c1[nH]c2sc(-c3ccccc3)cc2c(=O)n1O` [Compound 11a, 3-Hydroxy-6-phenylthieno[2,3-d]pyrimidine-2,4(1H,3H)-dione] returned a half-inhibitory concentration (IC50) against HIV RT polymerase (pol) above 10 µM.
In turn, `O=c1[nH]c2sc(Cc3ccccc3)cc2c(=O)n1O` [Compound 11b, 6-Benzyl-3-hydroxythieno[2,3-d]pyrimidine-2,4(1H,3H)-dione] yielded an IC50 against HIV RT polymerase (pol) above 10 µM.
Take `O=c1[nH]c2scc(-c3ccccc3)c2c(=O)n1O` [Compound 11c, 3-Hydroxy-5-phenylthieno[2,3-d]pyrimidine-2,4(1H,3H)-dione]: the IC50 against HIV RT polymerase (pol) is above 10 µM; in series [1], 100 ± 30 nM.
As to `O=c1[nH]c2scc(-c3ccc(Cl)cc3)c2c(=O)n1O` [Compound 11d, 5-(4-Chlorophenyl)-3-hydroxythieno[2,3-d]pyrimidine-2,4(1H,3H)-dione], at HIV RT polymerase (pol), the IC50 is above 10 µM. Moreover, the “RT IC50 Pol” value on HIV RT polymerase (pol) (setting [4]) is recorded as “did not inhibit RT polymerase”.
At HIV RT polymerase (pol), `O=c1[nH]c2sccc2c(=O)n1O` [Compound 11e, 3-Hydroxythieno[2,3-d]pyrimidine-2,4(1H,3H)-dione] showed an IC50 above 10 µM.
`Cc1csc2[nH]c(=O)n(O)c(=O)c12` [Compound 11f, 3-Hydroxy-5-methylthieno[2,3-d]pyrimidine-2,4(1H,3H)-dione]: the IC50 against HIV RT polymerase (pol) is above 10 µM; in series [1] it was 100 ± 20 nM.
`Cc1sc2[nH]c(=O)n(O)c(=O)c2c1C` [Compound 11g, 3-Hydroxy-5,6-dimethylthieno[2,3-d]pyrimidine-2,4(1H,3H)-dione]: the results for the IC50 (against HIV RT polymerase (pol); in series [1]) were above 10 µM and 100 ± 30 nM, respectively.
As to `Cc1c(C(=O)O)sc2[nH]c(=O)n(O)c(=O)c12` [Compound 11h, 3-Hydroxy-5-methyl-2,4-dioxo-1,2,3,4-tetrahydrothieno[2,3-d]pyrimidine-6-carboxylic acid], the half-maximal inhibitory concentration (IC50) was above 10 µM on HIV RT polymerase (pol) and 100 ± 20 nM in series [1].
For the compound `CCN1CCc2c(sc3[nH]c(=O)n(O)c(=O)c23)C1` [Compound 11k, 7-Ethyl-3-hydroxy-5,6,7,8-tetrahydropyrido[4′,3′:4,5]thieno[2,3-d]pyrimidine-2,4(1H,3H)-dione hydrochloride], the IC50 at HIV RT polymerase (pol) was above 10 µM; at HIV integrase, above 100 µM; in series [1], 200 ± 30 nM. Moreover, the EC50 in the series on HIV-1 is above 20 µM. The 50% cytotoxic concentration (CC50) at 72 h in series [2] is above 100 µM.
In the case of `O=c1[nH]c2sc3c(c2c(=O)n1O)CCNC3` [Compound 11l, 3-Hydroxy-5,6,7,8-tetrahydropyrido[4′,3′:4,5]thieno[2,3-d]pyrimidine-2,4(1H,3H)-dione hydrobromide], the results for the IC50 (at HIV RT polymerase (pol); against HIV integrase; in series [1]) were above 10 µM, 17 ± 3 µM and 300 ± 30 nM, respectively. Also, the half-maximal effective concentration (EC50) in the series on HIV-1 is above 20 µM. The 50% cytotoxic concentration (CC50) at 72 h in series [2] is above 100 µM.
For `O=c1[nH]c2sc3c(c2c(=O)n1O)CCN(Cc1ccccc1)C3` [Compound 11m, 7-Benzyl-3-hydroxy-5,6,7,8-tetrahydropyrido[4′,3′:4,5]thieno[2,3-d]pyrimidine-2,4(1H,3H)-dione hydrochloride], in that order: above 10 µM, 8.3 ± 0.8 µM, 100 ± 40 nM, above 20 µM and above 100 µM.
Compound `O=C1Cc2cc(-c3ccccc3)ccc2C(=O)N1O` [Compound 14, 2-Hydroxy-6-phenylisoquinoline-1,3(2H,4H)-dione] returned a 50% inhibitory concentration (IC50) on HIV RT polymerase (pol) above 10 µM. The “RT IC50 Pol” value on HIV RT polymerase (pol) (setting [4]) is recorded as “without inhibiting RT pol”.
